Calls of active or inactive are those of the source. The rule behind the calls is not given here.
Tested on: GENE-TOX genotoxicity assays, various organisms and cells
Assay: GENE-TOX mutagenicity studies
[1] = Species/Cell Type: Salmonella typhimurium (one or more of the five standard strains: TA98, TA100, TA1535, TA1537, and TA1538), Assay Type: Histidine reverse gene mutation, Ames assay, Assay Code: SAL+, Evaluation Type: Evaluation A (Pre-1980)
[2] = Species/Cell Type: Mammalian polychromatic erythrocytes, Assay Type: Micronucleus test, chromosome aberrations, Assay Code: MNTT, Evaluation Type: Evaluation B (Post-1980)
[3] = Species/Cell Type: Salmonella typhimurium (one or more of the five standard strains: TA98, TA100, TA1535, TA1537, and TA1538), Assay Type: Histidine reverse gene mutation, Ames assay, Assay Code: SAL+*, Activation: With metabolic activation, Evaluation Type: Evaluation A (Pre-1980)

Q: For `CCOP(=O)(NC(C)C)Oc1ccc(SC)c(C)c1` (configuration not stated), which mutagenic call (Species/Cell Type: Nonhuman, Assay Type: Sister-chromatid exchange (SCE) in vitro, Assay Code: SC2-, Evaluation Type: Evaluation B (Post-1980)) is on record?
A: The mutagenic call was “inactive; negative”.

Q: Which call (Species/Cell Type: Nonhuman, Assay Type: In vivo carcinogenicity studies, Assay Code: CCG+, Evaluation Type: Evaluation A (Pre-1980)) does the source give for `CN(C)/C=N/c1nnc(/C=C/c2ccc([N+](=O)[O-])o2)o1` here?
A: The call was “active; positive”.

Q: And the mutagenic call [1]?
A: Its mutagenic call is “active; positive”.

Q: For `CCN(CCCC(=O)O)N=O`, which mutagenic call [1] is on record?
A: Its mutagenic call is “active; positive”.

Q: How did the mutagenic call (Species/Cell Type: Drosophila melanogaster, Assay Type: Sex-linked recessive lethal gene mutation, Assay Code: SRL+, Evaluation Type: Evaluation A (Pre-1980)) turn out when `CS(=O)(=O)OCCCOS(C)(=O)=O` was run?
A: Its mutagenic call is “active; positive”.

Q: And the mutagenic call (Species/Cell Type: Rat, Sex: Male, Assay Type: Sperm morphology, Assay Code: SPA+, Evaluation Type: Evaluation A (Pre-1980))?
A: Its mutagenic call is “active; positive”.

Q: Which mutagenic call [1] does the source give for `COc1cc2c(c3oc(=O)c4c(c13)CCC4=O)[C@H]1[C@@H](O2)O[C@@H](Cl)[C@@H]1Cl` here?
A: The mutagenic call was “active; positive”.

Q: For `NNc1nnc(NN)c2ccccc12`, which mutagenic call (Species/Cell Type: Nonhuman, Assay Type: Sister-chromatid exchange (SCE) in vivo, Assay Code: SC3+, Evaluation Type: Evaluation B (Post-1980)) is on record?
A: The mutagenic call was “active; positive”.

Q: With `OOC1CCCc2ccccc21` (configuration not stated) as the compound, how does the mutagenic call (Species/Cell Type: Saccharomyces cerevisiae, Assay Type: Mitotic recombination or gene conversion, Assay Code: YEC-, Evaluation Type: Evaluation A (Pre-1980)) read?
A: The mutagenic call was “inactive; negative”.

Q: `O=c1[nH]cc(Cl)c(=O)[nH]1` was tested. Which mutagenic call (Species/Cell Type: Mouse, Sex: Male, Assay Type: Specific locus test, gene mutation, Assay Code: SLTT, Evaluation Type: Evaluation A (Pre-1980)) did it give?
A: Its mutagenic call is “no conclusion”.

Q: For `O=C(NO)NO`, which mutagenic call (Species/Cell Type: Drosophila melanogaster, Assay Type: Aneuploidy, sex chromosome gain, chromosome aberrations, Assay Code: DAGT, Evaluation Type: Evaluation A (Pre-1980)) is on record?
A: Its mutagenic call is “no conclusion”.

Q: What about the mutagenic call (Species/Cell Type: Drosophila melanogaster, Assay Type: Aneuploidy, whole sex chromosome loss, chromosome aberrations, Assay Code: DAC-M, Evaluation Type: Evaluation A (Pre-1980)) of the same compound?
A: Its mutagenic call is “inactive; negative”.

Q: And the mutagenic call (Species/Cell Type: Drosophila melanogaster, Assay Type: Sex-linked recessive lethal gene mutation, Assay Code: SRLT, Evaluation Type: Evaluation A (Pre-1980))?
A: The mutagenic call was “no conclusion”.

Q: `COc1cc(O)c2c(=O)c(O)c(-c3ccc(O)c(O)c3)oc2c1` was tested. Which mutagenic call [2] did it give?
A: Its mutagenic call is “no conclusion”.

Q: `Cc1ccc2cc3c(cc(O)c4ccccc43)c3c2c1CC3` was tested. Which mutagenic call (Species/Cell Type: Mouse prostate cells, Assay Type: Cell transformation, Assay Code: CTM+, Evaluation Type: Evaluation A (Pre-1980)) did it give?
A: The mutagenic call was “active; positive”.

Q: `CC(C)Nc1cccc2c1C(=O)c1ccccc1C2=O` was tested. Which mutagenic call [3] did it give?
A: The mutagenic call was “active; positive”.

Q: With `CCc1cccc(O)c1` as the compound, how does the mutagenic call (Species/Cell Type: Human lymphocytes, Assay Type: Sister-chromatid exchange (SCE) in vitro, Assay Code: SCLT, Evaluation Type: Evaluation B (Post-1980)) read?
A: Its mutagenic call is “no conclusion”.

Q: What about the mutagenic call (Species/Cell Type: Human, Assay Type: Sister-chromatid exchange (SCE) in vitro, Assay Code: SC1T, Evaluation Type: Evaluation B (Post-1980)) of the same compound?
A: The mutagenic call was “no conclusion”.

Q: For `CC1=CCc2c1c(C)cc1c2ccc2ccccc21`, which mutagenic call [3] is on record?
A: The mutagenic call was “active; positive”.

Q: `C[C@H](CCC(=O)O)[C@H]1CC[C@H]2[C@@H]3CC[C@@H]4C[C@H](OS(=O)(=O)O)CC[C@]4(C)[C@H]3CC[C@]12C` was tested. Which mutagenic call (Species/Cell Type: Syrian hamster embryo (SHE) cells, Assay Type: Cell transformation, clonal assay, Assay Code: CTC-, Evaluation Type: Evaluation A (Pre-1980)) did it give?
A: The mutagenic call was “inactive; negative”.

Q: With `CN1CCN(CC(=O)N2c3ccccc3C(=O)Nc3cccnc32)CC1` as the compound, how does the mutagenic call [2] read?
A: Its mutagenic call is “no conclusion”.

Q: Which mutagenic call [1] does the source give for `OCC(Br)CBr` (configuration not stated) here?
A: The mutagenic call was “active; positive”.

Q: With `COCCc1ccc(OCC(O)CNC(C)C)cc1` (configuration not stated) as the compound, how does the mutagenic call [2] read?
A: The mutagenic call was “no conclusion”.

Q: `O[As](O)O` was tested. Which mutagenic call (Species/Cell Type: Escherichia coli WP2, Assay Type: Tryptophan reverse gene mutation, Assay Code: WP2-, Evaluation Type: Evaluation A (Pre-1980)) did it give?
A: The mutagenic call was “inactive; negative”.

Q: What about the mutagenic call (Species/Cell Type: Human lymphocytes or leukocytes, Assay Type: Chromosome aberrations in vitro, Assay Code: CY7+, Evaluation Type: Evaluation A (Pre-1980)) of the same compound?
A: The mutagenic call was “active; positive”.

Q: For `Nc1ccc(Br)cc1`, which mutagenic call (Species/Cell Type: Mouse, Sex: Male, Assay Type: Sperm morphology, Assay Code: SPI-, Evaluation Type: Evaluation A (Pre-1980)) is on record?
A: The mutagenic call was “inactive; negative”.

Q: And the mutagenic call (Species/Cell Type: Nonhuman, Assay Type: Sister-chromatid exchange (SCE) in vivo, Assay Code: SC3T, Evaluation Type: Evaluation B (Post-1980))?
A: Its mutagenic call is “no conclusion”.

Q: How did the mutagenic call [1] turn out when `CC(=O)c1ccc([N+](=O)[O-])s1` was run?
A: Its mutagenic call is “active; positive”.

Q: How did the mutagenic call (Species/Cell Type: Human, Assay Type: Sister-chromatid exchange (SCE) in vitro, Assay Code: SC1+, Evaluation Type: Evaluation B (Post-1980)) turn out when `CCOC(=O)c1cc2cc3ccoc3cc2oc1=O` was run?
A: Its mutagenic call is “active; positive”.

Q: For `O=CNc1nc(-c2ccc([N+](=O)[O-])s2)cs1`, which mutagenic call [1] is on record?
A: The mutagenic call was “active; positive”.

Q: How did the mutagenic call [1] turn out when `c1ccc2c(c1)ccc1c3ccccc3c(C3CO3)cc21` (configuration not stated) was run?
A: The mutagenic call was “active; positive”.

Q: `COP(=S)(OC)SCc1nc(N)nc(N)n1` was tested. Which mutagenic call (Species/Cell Type: Hordeum vulgare (barley), Assay Type: Chromosome aberrations, Assay Code: HOC-, Evaluation Type: Evaluation A (Pre-1980)) did it give?
A: The mutagenic call was “inactive; negative”.

Reference: PubChem BioAssay AID1259408 (Genetic Toxicology Data Bank (GENE-TOX), 2018)
